Measured values published in patent US20040091853A1 (priority 2003, published 2004).
Where two headings read alike, the source gives them in different places.

Legend:
[1] = test system: pNL4-3-derived HIV reporter particles; assay type: cell-based
[2] = test system: VSV-G-enveloped particles; assay type: cell-based, HIV
[3] = test system: pNL4-3-derived HIV reporter particles; assay type: cell-based; details: particles made in presence of 1 μM inhibitor; supernatants tested on target cells

| Compound | blocking of transfer of β-lactamase to target cells [1] | blocking of transfer of β-lactamase to target cells [2] | blocking of transfer of β-lactamase [1] | percentage of blue cells [1] | blue cells in presence versus absence of NH4Cl [2] | percentage of blue cells [2] | effect on ability of HIV reporter particle to transfer β-lactamase to target cells [1] | percentage of blue cells [3] |
| --- | --- | --- | --- | --- | --- | --- | --- | --- |
| enfuvirtide | blocked the transfer of β-lactamase to target cells | neither agent blocked transfer of β-lactamase | – | – | – | – | – | – |
| Cl.N [NH4Cl] | – | – | did not block transfer of β-lactamase | ˜10% blue cells | significantly fewer blue cells | ˜10% blue cells | – | – |
| CCc1cc(NCc2nc3c(Cl)ccc(Cl)c3o2)c(O)nc1C [L-697661] | – | – | – | 10-20% blue cells | – | – | had no effect | ˜10-20% blue cells |
